According to US20200397728A1, “PHARMACEUTICAL FORMULATION FOR CARGLUMIC ACID” (RECORDATI S.p.A., priority 2019, published 2020):
Read-outs that look alike come from different tables or passages of the source.

Key:
[1] = Stability/compatibility of carglumic acid-excipient binary mixes, HPLC chromatographic purity; format: physicochemical
Procedure: Carglumic acid alone was also stored under the same conditions. […] Chromatographic purity have been tested for all the reported combinations and storage conditions. Under these chromatographic conditions the retention time (Rt) of carglumic acid is about 6.6 min. […] [table] [table]

[2] = cited from earlier work
[3] = 25° C./60% RH Closed bottles, 15 days
[4] = 25° C./60% RH Closed bottles, 30 days
[5] = 25° C./60% RH Open bottles, 7 days
[6] = 25° C./60% RH Open bottles, 15 days
[7] = 40° C./75% RH Closed bottles, 15 days
[8] = 40° C./75% RH Closed bottles, 30 days

**Q.** Which “Imp. 1 RRT 1.93” value [1, 3] does the source give for `NC(=O)N[C@@H](CCC(=O)O)C(=O)O` [Carglumic Acid, Carglumic acid] here?
**A.** 0.01%

**Q.** And the “Imp. 2 RRT 2.21” value [1, 3]?
**A.** 0.00%

**Q.** And the “Imp. 5a RRT 2.34” value [1, 3]?
**A.** 0.01%

**Q.** And the “Imp. 5b RRT 2.77” value [1, 3]?
**A.** 0.00%

**Q.** And the “Imp. 6 RRT 1.20” value [1, 3]?
**A.** 0.00%

**Q.** And the “Max, single unknown impurity” value [1, 3]?
**A.** 0.03%

**Q.** And the Total impurities [1, 3]?
**A.** 0.08%

**Q.** And the “Imp. 1 RRT 1.93” value [1, 4]?
**A.** 0.03%

**Q.** What about the “Imp. 2 RRT 2.21” value [1, 4] of the same molecule?
**A.** 0.01%

**Q.** What about the “Imp. 5a RRT 2.34” value [1, 4] of the same molecule?
**A.** 0.01%

**Q.** What about the “Imp. 5b RRT 2.77” value [1, 4] of the same molecule?
**A.** 0.00%

**Q.** What about the “Imp. 6 RRT 1.20” value [1, 4] of the same molecule?
**A.** 0.00%

**Q.** And the “Max, single unknown impurity” value [1, 4]?
**A.** 0.03%

**Q.** And the Total impurities [1, 4]?
**A.** 0.08%

**Q.** And the “Imp. 1 RRT 1.93” value [1, 5]?
**A.** 0.03%

**Q.** What about the “Imp. 2 RRT 2.21” value [1, 5] of the same molecule?
**A.** 0.01%

**Q.** And the “Imp. 5a RRT 2.34” value [1, 5]?
**A.** 0.02%

**Q.** What about the “Imp. 5b RRT 2.77” value [1, 5] of the same molecule?
**A.** 0.00%

**Q.** And the “Imp. 6 RRT 1.20” value [1, 5]?
**A.** 0.00%

**Q.** What about the “Max, single unknown impurity” value [1, 5] of the same molecule?
**A.** 0.05%

**Q.** And the Total impurities [1, 5]?
**A.** 0.18%

**Q.** What about the “Imp. 1 RRT 1.93” value [1, 6] of the same molecule?
**A.** 0.04%

**Q.** What about the “Imp. 2 RRT 2.21” value [1, 6] of the same molecule?
**A.** 0.01%

**Q.** What about the “Imp. 5a RRT 2.34” value [1, 6] of the same molecule?
**A.** 0.00%

**Q.** What about the “Imp. 5b RRT 2.77” value [1, 6] of the same molecule?
**A.** 0.00%

**Q.** What about the “Imp. 6 RRT 1.20” value [1, 6] of the same molecule?
**A.** 0.00%

**Q.** What about the “Max, single unknown impurity” value [1, 6] of the same molecule?
**A.** 0.02%

**Q.** And the Total impurities [1, 6]?
**A.** 0.11%

**Q.** What about the “Imp. 1 RRT 1.93” value [1, 7] of the same molecule?
**A.** 0.03%

**Q.** What about the “Imp. 2 RRT 2.21” value [1, 7] of the same molecule?
**A.** 0.01%

**Q.** What about the “Imp. 5a RRT 2.34” value [1, 7] of the same molecule?
**A.** 0.01%

**Q.** And the “Imp. 5b RRT 2.77” value [1, 7]?
**A.** 0.01%

**Q.** What about the “Imp. 6 RRT 1.20” value [1, 7] of the same molecule?
**A.** 0.00%

**Q.** And the “Max, single unknown impurity” value [1, 7]?
**A.** 0.02%

**Q.** And the Total impurities [1, 7]?
**A.** 0.12%

**Q.** And the “Imp. 1 RRT 1.93” value [1, 8]?
**A.** 0.03%

**Q.** What about the “Imp. 2 RRT 2.21” value [1, 8] of the same molecule?
**A.** 0.01%

**Q.** And the “Imp. 5a RRT 2.34” value [1, 8]?
**A.** 0.01%

**Q.** And the “Imp. 5b RRT 2.77” value [1, 8]?
**A.** 0.00%

**Q.** And the “Imp. 6 RRT 1.20” value [1, 8]?
**A.** 0.00%

**Q.** And the “Max, single unknown impurity” value [1, 8]?
**A.** 0.03%

**Q.** And the Total impurities [1, 8]?
**A.** 0.11%

**Q.** What about the “Imp. 1 RRT 1.93” value ([1]; 60° C. Closed bottles, 1 day) of the same molecule?
**A.** 0.03%

**Q.** What about the “Imp. 2 RRT 2.21” value ([1]; 60° C. Closed bottles, 1 day) of the same molecule?
**A.** 0.01%

**Q.** And the “Imp. 5a RRT 2.34” value ([1]; 60° C. Closed bottles, 1 day)?
**A.** 0.01%

**Q.** And the “Imp. 5b RRT 2.77” value ([1]; 60° C. Closed bottles, 1 day)?
**A.** 0.00%

**Q.** And the “Imp. 6 RRT 1.20” value ([1]; 60° C. Closed bottles, 1 day)?
**A.** 0.00%

**Q.** What about the “Max, single unknown impurity” value ([1]; 60° C. Closed bottles, 1 day) of the same molecule?
**A.** 0.02%

**Q.** And the Total impurities ([1]; 60° C. Closed bottles, 1 day)?
**A.** 0.10%

**Q.** And the “Imp. 1 RRT 1.93” value ([1]; t = 0)?
**A.** 0.02%

**Q.** What about the “Imp. 2 RRT 2.21” value ([1]; t = 0) of the same molecule?
**A.** 0.01%

**Q.** And the “Imp. 5a RRT 2.34” value ([1]; t = 0)?
**A.** 0.00%

**Q.** And the “Imp. 5b RRT 2.77” value ([1]; t = 0)?
**A.** 0.01%

**Q.** And the “Imp. 6 RRT 1.20” value ([1]; t = 0)?
**A.** 0.00%

**Q.** And the “Max, single unknown impurity” value ([1]; t = 0)?
**A.** 0.03%

**Q.** What about the Total impurities ([1]; t = 0) of the same molecule?
**A.** 0.07%

**Q.** And the Solubility ([2]; boiling water)?
**A.** soluble

**Q.** What about the Solubility ([2]; cold water) of the same molecule?
**A.** slightly soluble

**Q.** And the Solubility ([2]; organic solvents (cyclohexane, dichloromethane, ether))?
**A.** practically insoluble
